Key:
HuR [1] = target: T1, HuR (Homo sapiens, UniProt Q15717); test: Fluorescence binding assay using intrinsic fluorescence of the PROTAC with titrated HuR protein; details: fixed 100 μM degrader, increasing HuR; fluorescence rises over 0.0075–0.1 nM and 0.125–1 nM
Procedure: To elucidate the mechanism underlying the observed biphasic degradation pattern, we generated a docking model using the Schrödinger software. […] This preferential binding correlates with the initial phase of degradation observed at low degrader concentrations (5 nM to 100 nM; Figures B and B and ). At higher degrader concentrations (e.g., 10 μM), different complex engagement may occur at the P2 RNA-binding pocket. […] Unlike the previous displacement assay–which monitored competition between labeled RNA and HuR–we utilized the intrinsic fluorescence of the PROTAC derivative at a fixed concentration while titrating HuR protein. This approach allowed us to detect fluorescence changes corresponding to HuR binding events. […] Fluorescence increased over two separate concentration ranges–0.0075–0.1 nM and 0.125–1 nM–with a clear dip between 0.1 and 0.125 nM. […]
As part of the dual-binding evaluation, Pro-HuR3 fluorescence was first characterized across a concentration range (1–100 μM; 1, 2, 5, 10, 20, 50, and 100 μM). The assays were performed in PBS buffer (20 mM sodium phosphate, 150 mM NaCl, 1 mM dithiothreitol, 0.05% PLURONIC-127, 15% DMSO) at 293 K. Fluorescence spectra were recorded using the Synergy H1 Hybrid Multi-Mode Microplate Reader (Biotek, Agilent), with excitation and emission scans identifying optimal wavelengths of 405–415 nm (excitation) and 520 nm (emission), respectively. […]

Bcl2 and FOXQ1 mRNA = test: mRNA RT-qPCR of Bcl2 and FOXQ1 in MCF-7 cells; format: cell-based, human
Procedure: MCF-7 cells were seeded into 12-well plates (∼150,000 cells per well) at 60–70% confluency incubated for 12 h. The cells were then treated with different synthesized compounds at the indicated concentrations or with vehicle control for 24 and 48 h. After treatment, total RNA was extracted using the QuickRNA Miniprep Kit (Zymo Research) according to the manufacturer’s protocol, including DNase I treatment. Reverse transcription was performed on 1 μg of total RNA using the qScript cDNA Synthesis Kit (Quantabio) following the manufacturer’s instructions. Approximately 30 ng of cDNA were used for each qPCR reaction, which was carried out using the Luna Universal qPCR Master Mix (New England BioLabs, cat# E3010G) on a CFX Opus 384 Real-Time PCR System. Relative expression levels of Bcl-2 and FOXQ1 were calculated by normalizing to GAPDH expression using the ΔΔCt method.

HuR [2] = target: T1, HuR; test: HuR protein expression by western blot in MDA-MB-231 cells; format: cell-based; parameters: endogenous in cells; details: 48 h
Procedure: Total protein was extracted using RIPA cell lysis buffer (BioPrep) containing a protease inhibitor, and protein concentration was measured using the BCA protein assay (Sigma-Aldrich) according to the manufacturer’s protocol. Approximately 30 μg of total protein were resolved on a 12% SDS-acrylamide gel and transferred to a PVDF membrane (Immobilon FL transfer membrane; Merck). The membrane was washed with 1× Tris-buffered saline (TBS) containing 0.1% (v/v) Tween-20 (TBST; Tris-base, pH 7.6, NaCl, and Tween-20) and blocked in 1× TBST containing 5% (w/v) BSA for 2 h at room temperature. The membrane was then incubated overnight at 4 °C with primary antibodies: a 1:1000 dilution of rabbit anti-ELAVL1/HuR (Cell Signaling Technology, #12582), a 1:1000 dilution of mouse anti-Bcl2 (Cell Signaling Technology, #15071), or a 1:10,000 dilution of rabbit anti-Vinculin (Cell Signaling Technology, #13901) in 1× TBST containing 5% (w/v) BSA. Following primary antibody incubation, the membrane was washed with 1× TBST and incubated with a 1:10,000 dilution of the appropriate horseradish-peroxidase-conjugated secondary antibody (antirabbit IgG: Cell Signaling, #7074 or antimouse IgG: Cell Signaling, #7076) at room temperature for 2 h. […] The fold change in the expression of the target proteins (HuR or Bcl2) was calculated by normalizing the band intensity to the Vinculin band intensity using ImageJ.

HuR [3] = target: T1, HuR; test: HuR protein expression by western blot in MCF-7 cells; format: cell-based; parameters: endogenous in cells; host or cells: MCF-7
From the text: Michigan Cancer Foundation-7 (MCF-7) cells were chosen due to their documented overexpression of HuR, which has been linked to cancer pathogenicity in this specific cell line. , Consequently, reducing HuR expression to physiologically normal levels is considered a potential strategy for novel anticancer therapies targeting breast cancers associated with HuR overexpression.
Total protein was extracted using RIPA cell lysis buffer (BioPrep) containing a protease inhibitor, and protein concentration was measured using the BCA protein assay (Sigma-Aldrich) according to the manufacturer’s protocol. Approximately 30 μg of total protein were resolved on a 12% SDS-acrylamide gel and transferred to a PVDF membrane (Immobilon FL transfer membrane; Merck). The membrane was washed with 1× Tris-buffered saline (TBS) containing 0.1% (v/v) Tween-20 (TBST; Tris-base, pH 7.6, NaCl, and Tween-20) and blocked in 1× TBST containing 5% (w/v) BSA for 2 h at room temperature. The membrane was then incubated overnight at 4 °C with primary antibodies: a 1:1000 dilution of rabbit anti-ELAVL1/HuR (Cell Signaling Technology, #12582), a 1:1000 dilution of mouse anti-Bcl2 (Cell Signaling Technology, #15071), or a 1:10,000 dilution of rabbit anti-Vinculin (Cell Signaling Technology, #13901) in 1× TBST containing 5% (w/v) BSA. Following primary antibody incubation, the membrane was washed with 1× TBST and incubated with a 1:10,000 dilution of the appropriate horseradish-peroxidase-conjugated secondary antibody (antirabbit IgG: Cell Signaling, #7074 or antimouse IgG: Cell Signaling, #7076) at room temperature for 2 h. After washing three times with 1X TBST (10 min per wash), protein bands were visualized using Clear Band ECL Substrate (Gene Bio-Application) on the Azure C300 Imaging System. The fold change in the expression of the target proteins (HuR or Bcl2) was calculated by normalizing the band intensity to the Vinculin band intensity using ImageJ.

HuR [4] = target: T1, HuR; test: Proteasome inhibitor (bortezomib, MG132) mechanistic validation of HuR degradation in MCF-7 cells; format: cell-based; parameters: endogenous in cells; host or cells: MCF-7; details: MCF-7, with bortezomib or MG132
Procedure: MCF-7 cells were seeded in 6-well plates at approximately 60% confluency and incubated for 12 h. The cells were then treated with 1 μM of the proteasome inhibitors Bortezomib (Thermo Fisher Scientific, CAS: 179324-69-7) and MG132 (Aaron Chemicals, CAS: 1211877-36-9). After treatment, the synthesized compounds were added at a concentration of 10 μM, and the cells were incubated for 5 h.

T1 sequence (Q15717 whole entry): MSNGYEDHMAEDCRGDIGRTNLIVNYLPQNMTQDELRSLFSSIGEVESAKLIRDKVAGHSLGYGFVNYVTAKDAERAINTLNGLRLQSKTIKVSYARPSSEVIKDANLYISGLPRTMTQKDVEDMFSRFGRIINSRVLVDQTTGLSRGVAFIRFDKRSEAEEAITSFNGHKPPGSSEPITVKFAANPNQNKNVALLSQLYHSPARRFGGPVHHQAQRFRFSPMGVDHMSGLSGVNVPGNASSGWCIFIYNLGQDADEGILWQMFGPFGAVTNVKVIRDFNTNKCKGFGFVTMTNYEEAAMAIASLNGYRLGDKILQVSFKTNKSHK

O=C1CCC(N2C(=O)c3cccc(NCc4cn(-c5ccc6sc(C(=O)O)cc6c5)nn4)c3C2=O)C(=O)N1 (centres unmarked) [PRO-HuR3]
binding response on HuR titration (intrinsic fluorescence) (HuR [1]): two distinct IC50 values
Bcl2 mRNA expression relative to lower concentrations (Bcl2 and FOXQ1 mRNA; MCF-7, 1 μM): increase in Bcl2 expression
Bcl2 and FOXQ1 mRNA expression (Bcl2 and FOXQ1 mRNA; MCF-7, concentrations ranging from 1 nM to 100 nM): decrease in the expression of both genes
reduction of HuR expression (HuR [2]; MDA-MB-231, 10 nM): 38%
reduction of HuR expression (HuR [2]; MDA-MB-231, 10 μM): ~75%
reduction of HuR expression (HuR [3]; MCF-7, 10 nM, 48 h): 42%
onset of activity (HuR degradation) (HuR [3]; MCF-7, 10 μM): 48 h
time-dependent response of HuR degradation (HuR [3]; MCF-7, 10 μM): showed a time-dependent response
reduction of HuR expression (HuR [3]; MCF-7, 10 μM, 48 h): ~75%
degrader activity at intermediate concentration (hook effect) (HuR [3]; around 0.1 μM, 48 h, MCF-7 and MDA-MB-231): loss of degrader activity
degrader activity under 26S proteasome inhibition (HuR [4]): completely impaired

From publication PMC12381739, “Druglike Molecular Degraders of the Oncogenic RNA-Binding Protein HuR” (JACS Au, 2025)
